The source made the active and inactive calls. No cut-off for these calls is given here.
Tests used:
Carbonic anhydrase 9 = Carbonic anhydrase 9 (Homo sapiens, UniProt Q16790)
Description: Inhibition of human carbonic anhydrase 9 after 15 mins by stopped flow carbon dioxide hydration assay

RBE4 [1] = test: Cytotoxicity against rat RBE4 cells assessed as mortality at 30 uM after 24 hrs by MTT assay; assay type: cell-based; conditions: rbe4, 24 h
RBE4 [2] = test: Cytotoxicity against rat RBE4 cells assessed as mortality at 10 uM after 24 hrs by MTT assay; assay type: cell-based; conditions: rbe4, 24 h
RBE4 [3] = test: Protection against glucose oxidase-induced oxidative stress in rat RBE4 cells assessed as increase in cell viability at 10 to 100 uM cotreated with glucose oxidase for 1 hr measured after 24 hrs by MTT assay; assay type: functional, cell-based
RBE4 [4] = test: Protection against glucose oxidase-induced oxidative stress in rat RBE4 cells assessed as increase in cell viability at 100 uM cotreated with glucose oxidase for 1 hr measured after 24 hrs by MTT assay; assay type: functional, cell-based

SMILES	Ki (Carbonic anhydrase 9) [nM]	Activity (RBE4 [2])	also measured
NS(=O)(=O)c1ccc([Se]C2CCCCC2)cc1	2.6		
C#CC[Se]c1ccc(S(N)(=O)=O)cc1	2.7		
CC#CC[Se]c1ccc(S(N)(=O)=O)cc1	2.2		
NS(=O)(=O)c1ccc([Se][Se]c2ccc(S(N)(=O)=O)cc2)cc1			mortality (RBE4 [1]): 50%
CCCCC[Se]c1ccc(S(N)(=O)=O)cc1	2.6	Non-Toxic	Activity (RBE4 [3]): inactive
NS(=O)(=O)c1ccc(C[Se]c2ccccc2)cc1	2.7		
NS(=O)(=O)c1ccc([Se]CCO)cc1	2.4	Non-Toxic	Activity (RBE4 [3]): inactive
C=CC[Se]c1ccc(S(N)(=O)=O)cc1	2.6		
CC(C)[Se]c1ccc(S(N)(=O)=O)cc1	2.4	Non-Toxic	Activity (RBE4 [3]): inactive
C[Se]c1ccc(S(N)(=O)=O)cc1	2.7		
COCC[Se]c1ccc(S(N)(=O)=O)cc1	12	Non-Toxic	Activity (RBE4 [4]): Active
NS(=O)(=O)c1ccc([Se]CCc2ccccc2)cc1	8.7		
